Experimental data published in patent publication US20080095790A1, “Methods of Treating Prostate Cancer” (priority 2006, published 2008).

Assays:
[1] = system: PSA-peptide tetramer+CD8+ cells; assay: PSA-peptide-HLA-A2 tetramer analysis of PBMC from vaccinated patients; assay type: in vivo, human; conditions: out of 28 patients (50%), week 26 and/or week 52
[2] = DTH skin testing with PSA-peptide; assay type: in vivo, human
Protocol: A total of 28 patients were vaccinated with PSA-peptide at three time points, i.e., weeks 1, 4 and 10 and DTH skin testing was performed on weeks 4, 14, 26 and 52.

T2 cells = assay: Chromium release assay (CRA), 4 hour; assay type: cell-based, human
Protocol: Specific cytolytic activity was analyzed by standard 4 hour CRA as previously described (Xue et al., (1997) Prostate 30:73). […] Supernatants recovered from CRA were assayed for gamma emission using a Top-count NXT scintillation counter (Packard, Meriden, Conn.) and the percent specific lysis was calculated as previously described (Xue et al., (1997) Prostate 30:73).

DTH-derived T-cells = assay: Cytokine bead array (CBA) of DTH-derived T-cells cultured with peptide-pulsed T2 cells; assay type: cell-based, human
Protocol: Out-growth of T-cells was observed within 3 days. On day 4, 500 μl of the spent medium was aspirated and replenished with fresh medium plus IL-2 and cultured further for a total of 6-8 days, until the culture wells became confluent. […] Each cycle of stimulation was 7±1 days. Cytokines released into the culture supernatant, including IFN-γ, TNF-α, IL-4, IL-6 and IL-10, were measured concurrently by cytokine bead array (CBA) analysis (BD Biosciences, San Diego, Calif.). The antigen presenting cell line, T2 (ATCC, Manassas, Va.) was used as a stimulator and was pulsed with 20 μg/ml of PSA-peptide or control HLA-A2 binding peptide, HIV-RT476-484 or diluent alone (0.4% volume by volume). T2 cells (25,000/well) were cultured with DTH-derived T-cells (100,000/well) in complete medium containing 30 U/ml of IL-2 in a total volume of 1 ml per well in 48-well plates. […] Cells were incubated at 37° C. for 24 hours in 5% CO2 atmosphere. Supernatants were harvested and stored in sterile vials at −80° C. At the time of assay, samples were thawed and cytokines were measured using a CBA kit as per the manufacturer's protocol with a FACSCalibur flow cytometer (Becton Dickinson, Mountain View, Calif.).

[3] = 6 out of 7 patients, after 1-3 cycles in vitro stimulation with PSA-peptide
[4] = four patients, after 1-3 cycles in vitro stimulation

Sequence: KLQCVDLHV (listed as Homo sapiens) [PSA-peptide]
- patients who developed ≧4 fold increases in CD8+ PSA-peptide specific tetramer cells [1]: 14 patients
- DTH induration with increasing doses of peptide ([2]; 1 to 20 μg peptide, responding patients): increasing level of DTH induration
- patients who developed positive DTH responses to PSA-peptide over time ([2]; of 28 patients (fifty percent), DTH testing weeks 4, 14, 26, 52): 14 patients
- lysis of PSA-peptide-pulsed T2 cells by sorted CD4−CD8+ T-cells, compared to HIV-RT476-484 or no peptide (T2 cells; 4 patients, 1-4 cycles in vitro stimulation): peptide-specific lysis
- cytolytic activity of induced T-cells (T2 cells; patient UPIN40): modest cytolytic activity
- cytolytic activity of induced T-cells (T2 cells; patients UPIN45, UPIN 55, UPIN 49): strongly cytolytic
- specific IFN-γ responses, median (DTH-derived T-cells; [3]): 163 pg/mL
- specific IFN-γ responses, range over patients (DTH-derived T-cells; [3]): 85 to 1030 pg/mL
- specific levels of IL-4, range over patients (DTH-derived T-cells; [4]): 18 to 486 pg/mL
- specific levels of TNF-α, median (DTH-derived T-cells; [4]): 38 pg/mL
- specific levels of TNF-α, range over patients (DTH-derived T-cells; [4]): 23 to 96 pg/mL
- IL-6 expression (DTH-derived T-cells; one patient (UPIN 49)): Non-specific expression
- patients whose DTH-derived T-cells showed specific IFN-γ responses (DTH-derived T-cells; out of 7 patients): 6 patients
- cytokine responses against T2 cells pulsed with PSA-peptide compared to HIV-RT476-484 or no peptide (DTH-derived T-cells; patient UPIN55, cycle 0, without peptide priming in vitro): specific cytokine responses
